Experimental data from US10800789B2, “Antiviral compounds” (Gilead Pharmasset LLC, priority 2012, dated 2020).
Where two headings read alike, the source gives them in different places.

Tests used:
[1] = test system: stable HCV 1b RLuc replicon cells (dicistronic genotype 1b Con1 replicon); test: Renilla luciferase HCV replicon reporter assay, genotype 1b; format: cell-based; conditions: Hepatitis C virus, 72 h, stable 1b Con1 RLuc replicon cells, 72 hours; read-out: 1b
Method in brief: (§1)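 Cells carrying the stable or transiently transfected (Huh-Lunet) dicistronic RLuc replicons received 3-fold serial compound dilutions from 10 mM DMSO stocks. After 72 h, cells were lysed and Renilla luciferase read. DMSO served as the no-inhibition control and ITMN-191 above 100×EC50 as the positive control; EC50 by non-linear regression.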

[2] = test system: stable HCV 1a RLuc replicon cells (dicistronic genotype 1a H77 replicon); test: Renilla luciferase HCV replicon reporter assay, genotype 1a; format: cell-based; conditions: Hepatitis C virus, 72 h, stable 1a H77 RLuc replicon cells
Method in brief: as §1

[3] = test system: Q30R in genotype 1a NS5A (1a Pi-Rluc replicon, Huh-7-derived cured-51 cells); test: Replicon assay against resistance mutant 1a Q30R; format: cell-based, HCV; conditions: Hepatitis C virus
Procedure: Antiviral potency (EC50) was determined using a Renilla luciferase (RLuc)-based HCV replicon reporter assay. To perform the assay for genotype 1 and 2a JFH-1, stable HCV 1a RLuc replicon cells (harboring a dicistronic genotype 1a H77 replicon that encodes a RLuc reporter), stable HCV 1b RLuc replicon cells (harboring a dicistronic genotype 1b Con1 replicon that encodes a RLuc reporter), or stable HCV 2a JFH-1 Rluc replicon cells (harboring a dicistronic genotype 2a JFH-1 replicon that encodes a RLuc reporter; with L31 present in NS5A) were dispensed into 384-well plates for EC50 assays. To perform the assay for genotype 2a (with M31 present in NS5A) or 2b, NS5A chimeric genotype 2a JFH-1 replicons that encodes a RLuc-Neo reporter and either genotype 2a J6 strain NS5A gene or genotype 2b MD2b-1 strain NS5A gene (both with M31 present) respectively, were either transiently transfected (t) into Huh-Lunet cells or were established as stably replicating replicon cells (s) is provided. Either cells were dispensed into 384-well plates for EC50 assays. To perform the assay for genotype 3 and 4, NS5A chimeric genotype 1b Con1 replicons that encodes a Pi-RLuc reporter and either genotype 3a S52 strain NS5A gene or genotype 4a ED43 strain NS5A gene respectively, were transiently transfected (t) into Huh-Lunet cells, which were subsequently dispensed into 384-well plates. Compounds were dissolved in DMSO at a concentration of 10 mM and diluted in DMSO either manually or using an automated pipeting instrument. Serially 3-fold diluted compounds were either manually mixed with cell culture media and added to the seeded cells or directly added to the cells using an automated instrument. DMSO was used as a negative (solvent; no inhibition) control, and the protease inhibitor ITMN-191 was included at a concentration>100×EC50 as a positive control. 72 hours later, cells were lysed and Renilla luciferase activity quantified as recommended by the manufacturer (Promega-Madison, Wis.). Non-linear regression was performed to calculate EC50 values.
To determine the antiviral potency (EC50) against resistance mutants, resistance mutations, including M28T, Q30R, Q30H, Q30E, L31M, Y93C, Y93H, and Y93N in genotype 1a NS5A, Y93H and L31V/Y93H in genotype 1b NS5A, and Y93H for in genotype 3a NS5A, were introduced individually into either 1a Pi-Rluc or 1b Pi-Rluc replicons by site directed mutagenesis. Replicon RNA of each resistant mutant was transiently transfected into Huh-7-derived cured-51 cells and antiviral potency was determined on these transfected cells as described above.

[4] = test system: stable HCV 2a JFH-1 Rluc replicon cells (L31 present in NS5A); test: Renilla luciferase HCV replicon reporter assay, genotype 2a JFH-1; format: cell-based; conditions: Hepatitis C virus
Method in brief: as §1

[5] = test system: NS5A chimeric genotype 2a JFH-1 replicon with genotype 2a J6 strain NS5A gene (M31 present); test: Replicon assay, genotype 2a J6 NS5A chimera; format: cell-based, HCV; conditions: Hepatitis C virus
Method in brief: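 EC50 was fitted by non-linear regression to Renilla luciferase signal after 72 h of exposure to 3-fold serially diluted compound (10 mM DMSO stocks). Controls were DMSO (none) and ITMN-191 above 100×EC50 (full). Chimeric 2a replicons were used either stable or transiently transfected into Huh-Lunet cells.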

[6] = test system: NS5A chimeric genotype 2a JFH-1 replicon with genotype 2b MD2b-1 strain NS5A gene (M31 present); test: Replicon assay, genotype 2b NS5A chimera; format: cell-based, HCV; conditions: Hepatitis C virus
Method in brief: as §1

[7] = test system: NS5A chimeric genotype 1b Con1 replicon with genotype 3a S52 strain NS5A gene; test: Replicon assay, genotype 3a NS5A chimera; format: cell-based, HCV; conditions: Hepatitis C virus
[8] = test system: NS5A chimeric genotype 1b Con1 replicon with genotype 4a ED43 strain NS5A gene; test: Replicon assay, genotype 4a NS5A chimera; format: cell-based, HCV; conditions: Hepatitis C virus
[9] = read-out: 2a JFH (nM), genotype 2a JFH-1 replicon (L31 in NS5A), stable cells
[10] = read-out: 2a JFH, stable 2a JFH-1 Rluc replicon cells, L31 in NS5A, activity range
[11] = read-out: 2a J6 (t) (nM), genotype 2a J6 NS5A chimeric replicon (M31), transiently transfected (t) into Huh-Lunet cells
[12] = read-out: 2a J6 (t), transiently transfected (t) into Huh-Lunet cells, activity range
[13] = 2BS, read-out: 2b (s), stably replicating replicon cells (s), activity range
[14] = read-out: 2b (s) (nM), genotype 2b MD2b-1 NS5A chimeric replicon (M31), stably replicating replicon cells (s)
[15] = read-out: 3a (s) (nM), genotype 3a NS5A chimeric replicon, stable replicon cells (s)
[16] = read-out: 3a (s), (s), activity range
[17] = read-out: 4a (s) (nM), genotype 4a NS5A chimeric replicon, stable replicon cells (s)
[18] = read-out: 4a (s), (s), activity range
[19] = read-out: 3a (t) (nM), genotype 3a NS5A chimeric replicon, transiently transfected (t)
[20] = read-out: 3a (t), transiently transfected (t) into Huh-Lunet cells, activity range

SMILES | EC50 [1] [nM] | EC50 [2] [nM] | EC50 ([2]; activity range) [nM] | EC50 ([3]; read-out: 1a Q30R) [nM] | EC50 ([3]; read-out: 1a Q30R (nM)) [nM] | EC50 [4, 9] [nM] | EC50 [4, 10] [nM] | EC50 [5, 11] [nM] | EC50 [5, 12] [nM] | EC50 [6, 13] [nM] | EC50 [6, 14] [nM] | EC50 [7, 15] [nM] | EC50 [7, 16] [nM] | EC50 [8, 17] [nM] | EC50 [8, 18] [nM] | EC50 [7, 19] [nM] | EC50 [7, 20] [nM] | EC50 ([6]; read-out: 2b (t) (nM), genotype 2b MD2b-1 NS5A chimeric replicon (M31), transiently transfected (t)) [nM] | EC50 ([6]; read-out: 2b (t), transiently transfected (t) into Huh-Lunet cells, activity range) [nM]
COC(=O)N[C@H](C(=O)N1[C@@H](C)CC[C@H]1c1ncc(-c2ccc3c(c2)COc2cc4c(ccc5nc([C@@H]6CC[C@H](C)N6C(=O)[C@H](NC(=O)OC)c6ccccc6)[nH]c54)cc2-3)[nH]1)C(C)C [FB, Methyl {(1R)-2-[(2S,5S)-2-(9-{2-[(2S,5S)-1-{(2S)-2-[(methoxycarbonyl)amino]-3-methylbutanoyl}-5-methylpyrrolidin-2-yl]-1H-imidazol-5-yl}-1,11-dihydroisochromeno[4′,3′:6,7]naphtho[1,2-d]imidazol-2-yl)-5-methylpyrrolidin-1-yl]-2-oxo-1-phenylethyl}carbamate] | 0.014 | 0.009 | < 0.1 | < 0.1 | 0.077 | 0.013 | < 0.1 | 0.105 | 0.1 to 0.999 | < 0.1 | 0.081 | 0.026 | < 0.1 | 0.01 | < 0.1 |  |  |  | 
COC(=O)N[C@H](C(=O)N1[C@@H](C)CC[C@H]1c1nc(Cl)c(-c2ccc3c(c2)COc2cc4c(ccc5nc([C@@H]6CC[C@H](C)N6C(=O)[C@@H](NC(=O)OC)[C@@H](C)OC)[nH]c54)cc2-3)[nH]1)[C@@H](C)OC [GB, Methyl [(2S,3R)-1-{(2S,5S)-2-[9-(4-chloro-2-{(2S,5S)-1-[N-(methoxycarbonyl)-O-methyl-L-threonyl]-5-methylpyrrolidin-2-yl}-1H-imidazol-5-yl)-1,11-dihydroisochromeno[4′,3′:6,7]naphtho[1,2-d]imidazol-2-yl]-5-methylpyrrolidin-1-yl}-3-methoxy-1-oxobutan-2-yl]carbamate] | 0.019 | 0.016 | < 0.1 | < 0.1 | 0.075 | 0.011 | < 0.1 | 0.023 | < 0.1 | < 0.1 | 0.089 | 0.029 | < 0.1 | 0.007 | < 0.1 | 0.034 | < 0.1 |  | 
CC[C@H]1C[C@@H](c2nc3ccc4cc5c(cc4c3[nH]2)OCc2cc(-c3cnc([C@@H]4CC[C@H](C)N4C(=O)[C@@H](NC(=O)OC)C(C)C)[nH]3)ccc2-5)N(C(=O)[C@@H](NC(=O)OC)C2CCOCC2)C1 [GV] | 0.027 | 0.018 | < 0.1 | < 0.1 | 0.061 | 0.008 | < 0.1 | 0.012 | < 0.1 | 0.1 to 0.999 | 0.112 | 0.042 | < 0.1 | 0.016 | < 0.1 |  |  |  | 
COC[C@H]1C[C@@H](c2ncc(-c3ccc4c(c3)c(=O)oc3cc5c(ccc6nc([C@@H]7CC[C@H](C)N7C(=O)[C@@H](NC(=O)OC)C(C)C)[nH]c65)cc34)[nH]2)N(C(=O)[C@H](NC(=O)OC)c2ccccc2)C1 [GK, methyl {(1R)-2-[(2S,4S)-2-(5-{2-[(2S,5S)-1-{(2S)-2-[(methoxycarbonyl)amino]-3-methylbutanoyl}-5-methylpyrrolidin-2-yl]-11-oxo-1,11-dihydroisochromeno[4′,3′:6,7]naphtho[1,2-d]imidazol-9-yl}-1H-imidazol-2-yl)-4-(methoxymethyl)pyrrolidin-1-yl]-2-oxo-1-phenylethyl}carbamate] | 0.036 | 0.031 | < 0.1 | 0.1 to 0.999 | 0.111 | 0.024 | < 0.1 | 0.071 | < 0.1 | 0.1 to 0.999 | 0.187 | 0.156 | 0.1 to 0.999 | 0.028 | < 0.1 |  |  | 0.087 | < 0.1
COC(=O)N[C@H](C(=O)N1[C@@H](C)CC[C@H]1c1ncc(-c2ccc3c(c2)COc2cc4c(ccc5nc([C@@H]6CC[C@H](C)N6C(=O)[C@@H](NC(=O)OC)[C@H](C)OC)[nH]c54)cc2-3)[nH]1)C(C)C [FK, Methyl [(2S)-1-{(2S,5S)-2-[5-(2-{(2S,5S)-1-[N-(methoxycarbonyl)-O-methyl-L-allothreonyl]-5-methylpyrrolidin-2-yl}-1,11-dihydroisochromeno[4′,3′:6,7]naphtho[1,2-d]imidazol-9-yl)-1H-imidazol-2-yl]-5-methylpyrrolidin-1-yl}-3-methyl-1-oxobutan-2-yl]carbamate] | 0.037 | 0.024 | < 0.1 | 0.1 to 0.999 | 0.498 | 0.038 | < 0.1 | 0.4 | 0.1 to 0.999 | 0.1 to 0.999 | 0.476 | 0.137 | 0.1 to 0.999 | 0.018 | < 0.1 |  |  |  | 
COC(=O)N[C@H](C(=O)N1[C@@H](C)CC[C@H]1c1nc(C)c(-c2ccc3c(c2)COc2cc4c(ccc5nc([C@@H]6CC[C@H](C)N6C(=O)[C@@H](NC(=O)OC)[C@@H](C)OC)[nH]c54)cc2-3)[nH]1)[C@@H](C)OC [GD, Methyl [(2S,3R)-3-methoxy-1-{(2S,5S)-2-[9-(2-{(2S,5S)-1-[N-(methoxycarbonyl)-O-methyl-L-threonyl]-5-methylpyrrolidin-2-yl}-4-methyl-1H-imidazol-5-yl)-1,11-dihydroisochromeno[4′,3′:6,7]naphtho[1,2-d]imidazol-2-yl]-5-methylpyrrolidin-1-yl}-1-oxobutan-2-yl]carbamate] | 0.027 | 0.019 | < 0.1 | 0.1 to 0.999 | 0.105 | 0.035 | < 0.1 | 0.04 | < 0.1 | < 0.1 | 0.09 | 0.07 | < 0.1 | 0.018 | < 0.1 | 0.042 | < 0.1 |  | 
